PMC10065799, “High-throughput profiling of sequence recognition by tyrosine kinases and SH2 domains using bacterial peptide display” (eLife, 2023)

Legend:
[1] = test system: EPHB2 kinase domain; assay: pTyr-Var library bacterial peptide display kinase screen (enrichment scores); assay type: biochemical, human; settings: sheet EPHB2;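 note: log2 fold change in enrichment of variant over reference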
[2] = biological target: T1, c-Src kinase domain (Homo sapiens, UniProt P12931); assay: as above; assay type: biochemical; settings: sheet "Src"
[3] = biological target: T2, c-Abl kinase domain (Mus musculus, UniProt P00520); assay: as above; assay type: biochemical;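 note: log2 fold change in enrichment of variant over reference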
T2 sequence (P00520 242-493 limits assumed): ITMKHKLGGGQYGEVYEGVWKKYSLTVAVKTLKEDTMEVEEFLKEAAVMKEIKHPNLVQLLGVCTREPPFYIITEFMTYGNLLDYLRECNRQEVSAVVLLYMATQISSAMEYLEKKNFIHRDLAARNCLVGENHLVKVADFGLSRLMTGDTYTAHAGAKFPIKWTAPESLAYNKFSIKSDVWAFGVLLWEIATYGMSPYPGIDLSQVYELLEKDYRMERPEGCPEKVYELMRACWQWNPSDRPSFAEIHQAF

[4] = test system: EPHB1 kinase domain; assay: as above; assay type: biochemical, human; settings: for Screen (variant relative to reference peptide, measured in the pTyr-Var library screen): sheet "EPHB1", variant seq vs reference seq, bacterial peptide display enrichment; for Screen: sheet EPHB1, effect of the variant peptide relative to its reference peptide in the pTyr-Var library screen (enrichment scores)
[5] = biological target: T1, c-Src kinase domain; assay: RP-HPLC assay to measure peptide phosphorylation kinetics; assay type: biochemical; settings: purified peptide substrate
[6] = test system: Fer kinase domain; assay: pTyr-Var library bacterial peptide display kinase screen (enrichment scores); assay type: biochemical, mouse; settings: sheet "Fer";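 note: log2 fold change in enrichment of variant over reference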
[7] = effect of variant peptide relative to its reference peptide in the pTyr-Var library screen (enrichment scores)
[8] = variant peptide versus its reference peptide in the pTyr-Var library screen
[9] = sheet "Abl", effect of variant peptide relative to its reference peptide in pTyr-Var library screen (enrichment)
[10] = effect of the variant relative to its reference peptide in the pTyr-Var library screen
[11] = fig5-data2, sheet "Abl", Screen for the variant/reference peptide pair, pTyr-Var library
[12] = value of the variant peptide against its reference peptide in the pTyr-Var library screen with Fer
[13] = effect of the variant peptide relative to its reference peptide in the pTyr-Var library screen
[14] = variant peptide relative to its reference peptide, pTyr-Var library screen enrichment

## ADARMYGDLPW [PLP1_Y207_V209D]
[1]; [7]
  Screen: -2.321
[2]; [8]
  Screen: -1.273

## ADARMYGVLLW [PLP1_Y207_P211L]
[1]; [7]
  Screen: -1.961
[2]; [8]
  Screen: -0.7224

## ADELEYSRTGL [MMUT_Y287_G284E]
[1]; [7]
  Screen: -1.178

## ADGLEYSRTEL [MMUT_Y287_G291E]
[1]; [7]
  Screen: -1.172

## ATKNDYWAMLA [WWOX_Y287_P282A]
[3]; [9]
  Screen: -2.008
[1]; [10]
  Screen: -0.4918
[4]
  Screen (variant relative to reference peptide, measured in the pTyr-Var library screen): -0.006784

## Ac-AGQEKYSAMRD-NH2 [HRAS-Y64-E63K]
[5]
  Phosphorylation Rate: 0.027 s⁻¹

## Ac-GPDEPIYDMFPFKKKG-NH2 [Src Consensus (C-2P), Src Consensus variant with –2 Pro]
[5]
  Phosphorylation Rate: 12.667 s⁻¹

## CPFNLYAEQFS [HGD_Y40_L44F_YF]
[4]
  Screen: 0.9285

## EEQFFYEKAIL [BCCIP_Y257_E254Q]
[3]; [11]
  Screen: 0.5588
[6]; [12]
  Screen: -0.4348

## EVEPTYVVLFD [ERCC4_Y577_R576T_YF]
[1]; [7]
  Screen: 2.191
[4]
  Screen: 1.659
[2]; [13]
  Screen: 2.973

## FCRITYDIFPF [INTS13_Y67_M66T_YF]
[3]; [11]
  Screen: 1.32
[1]; [7]
  Screen: 0.3565
[4]
  Screen: -0.0851
[2]; [13]
  Screen: -0.3434

## FEDTLYTVLHR [UNC13D_Y61_A59T_YF]
[6]; [14]
  Screen: -0.9596
[1]; [10]
  Screen: -1.461
[4]
  Screen (variant relative to reference peptide, measured in the pTyr-Var library screen): -0.7483
[2]; [8]
  Screen: -0.1643

## FPLELYERVRI [PRKCG_Y312_M317I_YF]
[3]; [11]
  Screen: 2.263
[6]; [12]
  Screen: 0.4614
[4]
  Screen: -0.1732

## FQEPVYSVAFS [TBL1X_Y509_H504Y_YF]
[6]; [14]
  Screen: -0.4973
[1]; [7]
  Screen: -0.3359
[4]
  Screen (variant relative to reference peptide, measured in the pTyr-Var library screen): -0.4923
[2]; [8]
  Screen: -0.2752

## GHEFIYVDRMQ [PDGFRB_Y581_P584R_YF]
[6]; [12]
  Screen: -2.31
[1]; [7]
  Screen: -3.317
[4]
  Screen: -3.432
[2]; [8]
  Screen: -0.3711

## GREFIYVDPMQ [PDGFRA_Y574_H570R_YF]
[6]; [12]
  Screen: -1.733
[1]; [7]
  Screen: -0.4123
[4]
  Screen: -0.6275
[2]; [8]
  Screen: -0.9351

## GRIHSYRGHLW [VHL_Y112_R107G]
[4]
  Screen (variant relative to reference peptide, measured in the pTyr-Var library screen): -1.934
[2]; [8]
  Screen: -3.383

## HHIDFYKETTN [FGFR1_Y654_K656E_YF]
[1]; [7]
  Screen: 2.27

## HNLNFYKKTTN [FGFR3_Y648_D646N_YF]
[6]; [12]
  Screen: -1.085
[1]; [7]
  Screen: -1.314
[4]
  Screen: -1.233
[2]; [13]
  Screen: -1.956

## HNLPIYEGFAL [ACTA1_Y168_V165L_YF]
[3]; [11]
  Screen: 0.278
[6]; [12]
  Screen: -0.04484
[1]; [7]
  Screen: -0.1826
[4]
  Screen: -0.3324
[2]; [13]
  Screen: -0.1626

## HSSPVYVGRVV [TGM2_Y219_R214H]
[6]; [14]
  Screen: 0.4894
[4]
  Screen (variant relative to reference peptide, measured in the pTyr-Var library screen): 1.553
[2]; [8]
  Screen: 0.1113

## HSVLNYGVCVC [JAK2_Y613_L609S]
[4]
  Screen: -0.7312

## IFLGAYDRFLP [SLC22A5_Y486_V481I_YF]
[1]; [7]
  Screen: -0.2361
[2]; [8]
  Screen: -0.1658

## IVEELYAIPPD [PEAK1_Y797_S792I]
[6]; [12]
  Screen: 0.2222
[1]; [7]
  Screen: -0.0205
[4]
  Screen: 0.4436
[2]; [8]
  Screen: -0.02431

## KGEDFYCVTFH [FHL1_Y149_C153Y_YF]
[3]; [11]
  Screen: -1.856
[6]; [12]
  Screen: 1.626

## KKHIPYKEHKS [CSNK1G1_Y205_R206K]
[6]; [12]
  Screen: -0.8729
[4]
  Screen: -0.623

## KNEIFYQCPDQ [FBXO3_Y223_V221I]
[6]; [12]
  Screen: -0.5331
[1]; [7]
  Screen: -0.9058

## KSNSDYVDVLP [SH2D1B_Y127_N122K]
[1]; [7]
  Screen: -0.9717
[4]
  Screen (variant relative to reference peptide, measured in the pTyr-Var library screen): -0.2971

## LANNEYFFQVC [TTN_Y18997_R19000Q_YF]
[4]
  Screen (variant relative to reference peptide, measured in the pTyr-Var library screen): 1.182

## LEHCQYVTQKV [ALDOB_Y204_E207Q]
[6]; [12]
  Screen: -1.432
[1]; [7]
  Screen: -0.3412
[4]
  Screen: -0.6551

## LFEDHYLLGTS [ASS1_Y87_R86H_YF]
[1]; [7]
  Screen: -0.9482
[4]
  Screen: -1.664

## LSIQTYSALNF [DES_Y423_P419S]
[6]; [12]
  Screen: -2.047
[1]; [7]
  Screen: -1.403
[4]
  Screen: -1.829
[2]; [13]
  Screen: -0.607

## MGSFNYLGFPR [SPTLC2_Y178_A182P_YF]
[4]
  Screen (variant relative to reference peptide, measured in the pTyr-Var library screen): 0.8704

## MKNDLYQTPLH [NFKB1_Y582_R578K]
[6]; [12]
  Screen: -0.9562
[1]; [7]
  Screen: -1.089
[2]; [8]
  Screen: -0.3133

## NTGNFYDLFGG [PTPN11_Y63_D61N_YF]
[6]; [12]
  Screen: 0.7498
[2]; [8]
  Screen: 0.1419

## PAGSGYPAFLG [ATP6V1A_Y374_D371G_YF]
[4]
  Screen: -1.134

## PEADKYHLTFA [FGG_Y300_R301H_YF]
[4]
  Screen: 0.9471

## PHQTIYGALMI [FGF23_Y70_S71G]
[6]; [12]
  Screen: -2.622
[1]; [7]
  Screen: -2.622
[4]
  Screen: -3.192
[2]; [13]
  Screen: -0.7948

## PMDGEYFTLQI [TP53_Y327_L323M]
[6]; [14]
  Screen: 0.4582
[2]; [8]
  Screen: 0.4461

## QEGPEYWDLET [HLA-A_Y83_Q86L]
[4]
  Screen: 0.9985

## QNTGVYFDLFG [PTPN11_Y62_D61V_YF]
[3]; [11]
  Screen: 0.3099
[1]; [7]
  Screen: -4.12
[4]
  Screen: -3.507
[2]; [8]
  Screen: 0.4058

## QSSALYEDCFL [ASS1_Y83_R86C_YF]
[6]; [12]
  Screen: 0.6979
[1]; [7]
  Screen: 1.929
[4]
  Screen: 1.322
[2]; [13]
  Screen: 1.263

## REHTVYWEPRK [MAGEA4_Y240_G241W]
[4]
  Screen: 3.741
[2]; [13]
  Screen: 1.621

## RNEAFYDTFST [EFCAB3_Y372_S370A]
[3]; [11]
  Screen: 0.8648
[6]; [12]
  Screen: -0.7665
[1]; [7]
  Screen: -2.77
[4]
  Screen: -3.139
[2]; [13]
  Screen: -0.05343

## RRIHCYRGHLW [VHL_Y112_S111C]
[4]
  Screen (variant relative to reference peptide, measured in the pTyr-Var library screen): -1.56
[2]; [8]
  Screen: -2.571

## RRIHNYRGHLW [VHL_Y112_S111N]
[4]
  Screen (variant relative to reference peptide, measured in the pTyr-Var library screen): -1.094
[2]; [8]
  Screen: -2.675

## RWQQLYDTLNA [EIF3M_Y351_Q346R]
[6]; [12]
  Screen: -0.4426
[1]; [7]
  Screen: 0.365
[4]
  Screen: -0.05321
[2]; [13]
  Screen: -0.1

## SEEVNYATLTF [CLEC12B_Y7_T6N]
[3]; [11]
  Screen: 1.648
[6]; [12]
  Screen: -0.6417
[4]
  Screen: 0.955
[2]; [13]
  Screen: -1.881

## SISFDYCRVPM [BST2_Y8_T4I_YF]
[1]; [7]
  Screen: -2.162
[4]
  Screen: -2.179

## SVCPDYDLCSI [SQSTM1_Y148_V153I]
[3]; [9]
  Screen: -2.483
[6]; [14]
  Screen: 0.6845

## TAGFIYEKWEI [TEC_Y360_S359I]
[6]; [14]
  Screen: 3.032
[2]; [8]
  Screen: 3.208

## TLSGIYQFSIA [FOXL2_Y81_I84S_YF]
[6]; [12]
  Screen: -1.302
[1]; [7]
  Screen: -3.18
[4]
  Screen: -3.13
[2]; [13]
  Screen: -0.1944

## VFLGAYDCFLP [SLC22A5_Y486_R488C_YF]
[6]; [14]
  Screen: 1.979
[1]; [7]
  Screen: 1.473
[4]
  Screen (variant relative to reference peptide, measured in the pTyr-Var library screen): 1.419
[2]; [8]
  Screen: 0.189

## VFPIDYFFPPQ [AR_Y552_L548F_YF]
[1]; [7]
  Screen: 0.813

## WSFNLYDINKD [KCNIP3_Y174_A170S]
[6]; [12]
  Screen: -0.8483
[1]; [7]
  Screen: -1.005
[2]; [13]
  Screen: -1.011
